89 compounds from a melting point compilation (Tetko et al.; mined from patent text by program, amines drawn as free bases though some values may be those of a salt) can be followed below.

In turn, `O=[N+]([O-])c1ccc2c(c1)C[C@H]1CSC(=S)N1C2` gave a melting point of 220 °C. `O=C(NCc1ccccc1Cl)c1cccnc1Oc1cccnc1` came in with a melting point of 174 to 176 °C. Turning to `Nc1cccc(Nc2cccc(N)n2)n1`, the melting point fell in the range of 171 to 173 °C. Compound `OC1CC2(CCNC2)c2ccccc21` (centres undefined) came in with a melting point of 155 to 158 °C. The same measure for `CCOC(=O)C1=CC(=O)C(C(=O)OCC)=C(S(=O)(=O)c2ccccc2)C1=O`: 112 to 114 °C. The same measure for `CN1Cc2c(-c3nc(CN)no3)ncn2-c2ccccc2C1=O`: 183 to 185 °C; for `CCC(CC)c1ccc(Cl)c2nc3n(c12)CCCCN3c1ccc(Cl)cc1Cl`: 160 to 162 °C; for `CC1(C)OC(=O)N2CCN(C(=O)OCc3ccccc3)CC21` (centres undefined): 86 to 88 °C.

The compound `CCNc1ccc(C#N)cc1[N+](=O)[O-]` yielded a melting point of 130 to 132 °C. As to `Cc1ccnc2c1C(O)c1ccccc1-2` (centres undefined), the melting point fell in the range of 154 to 156 °C.

For the compound `O=C1CCC(C(=O)N2CCN(CC(=O)N3CCOCC3)CC2)N1` (centres undefined), the melting point fell in the range of 167 to 169 °C. The same measure for `CCOCc1nc2c(N)nc(C)c(C)c2n1CCOCc1ccccc1`: 107 to 108 °C; for `Cc1cc(Oc2ccc([N+](=O)[O-])c(C)c2)n[nH]1`: 114 to 117 °C; for `Cc1ccc2nc(-c3ccccc3C#N)ncc2c1`: 174 to 176 °C. Compound `c1cnc(NCc2ccc3c(c2)-c2[nH]nc(-c4ccsc4)c2C3)nc1` yielded a melting point of 259 to 260 °C. Then `COc1cccc(CCc2c(CCNC(=O)CCCCC(=O)NCCc3ccc(N)cc3)ccc(OC)c2OC)c1`, with 163 to 165 °C; and `O=C(Nc1cc(Cl)ccn1)c1ccn2c1CSC2c1cccnc1` (centres undefined), with 190 °C. On to `C#CCP(=O)(O)CCCN`, for which the melting point fell in the range of 172 to 173 °C. `CC(C)(C)c1cc2c(cc1Br)C=C(C(=O)O)C(C(F)(F)F)O2` (centres undefined): the melting point is 199 to 200 °C. Then `C[C@@H](NC(=O)OC(C)(C)C)C(=O)NCCCN1CCN(CCCNc2cccc3c2C(=O)c2ccccc2C3=O)CC1`, with 78 to 80 °C; and `COc1ccc(-c2c(C)c3ccc(OC(C)=O)c(O)c3oc2=O)c(OC)c1`, with 140 to 141 °C. For the compound `CCOC(=O)C(Cc1nc2ccccc2n1Cc1ccc([N+](=O)[O-])cc1)C(=O)OCC`, the melting point came to 135 °C.

The compound `O=P(O)(O)Cc1ccc2ccccc2c1` yielded a melting point of 234 to 236 °C.

Take `Cc1ccc(CCNC(=O)c2ccc3n2Cc2ccccc2N(C(=O)c2ccc(-c4ccccc4C)c(C)c2)C3)cc1`: the melting point is 161 to 163 °C. In the case of `COc1ccc(N(C(=O)c2ccc(OC)c(F)c2)c2ccc(F)cc2)cc1`, the melting point lay in the range of 54 to 56 °C. Then `NC(N)=Nc1nc(-c2ccc(CNC(=O)c3ccco3)o2)cs1`, with 246 °C; and `CCCNNC(=O)c1cnc(N(CC)Cc2cc(Br)ccc2OCc2ccccc2)s1`, with 163 °C.

The compound `CN(C)CCNC(=O)c1cc(Cl)c(N)cc1O` yielded a melting point of 163 to 165 °C. Consider `BrCc1ccccc1-c1cc(-c2ccccc2)on1`, for which the melting point was 68 to 72 °C. Compound `CCCCCCCCCCC=C1SC(=S)N(CC(=O)O)C1=O` gave a melting point of 61 to 63 °C.

The compound `CC(C)Oc1ccc(-c2ccc(C#N)cc2)cc1C=O` gave a melting point of 94 to 96 °C. As for `NC(=O)c1cccc(NC(=O)C(F)(F)F)c1`, the melting point fell in the range of 262 to 263 °C.

For the compound `O=C1CCCCC1n1nc(-c2c(-c3ccccc3)nn3ccccc23)ccc1=O` (centres undefined), the melting point fell in the range of 166 to 168 °C.

As for `CC1CCCN(CCNc2ccnc3cc(Cl)ccc23)C1` (racemic), the melting point fell in the range of 148 to 151 °C. The same measure for `COc1cc2c(cc1Nc1ncc(Cl)c(Nc3ccccc3S(=O)(=O)N(C)C)n1)CCN(CCCN1CCOCC1)C(=O)C2`: 78 to 87 °C; for `NC(=O)N1C(=O)C(C(=O)c2ccco2)c2nc(Cl)ccc21` (centres undefined): 248 to 260 °C; for `Nc1cc(F)c(Cl)c(F)c1N`: 77 to 78 °C. With `CCNc1ncc(S(=O)(=O)NCC)cc1[N+](=O)[O-]`, the melting point was in the range of 153 to 155 °C. Consider `CCCCCCCCCCCCOc1ccc(C=C(C(=O)OCC(O)CO)C(=O)OCC(O)CO)cc1` (centres undefined), for which the melting point lay within 80 to 85 °C. As for `Cc1ccccc1C(=O)Nc1ccc(C(=O)N2CCCC(N)c3ccccc32)cc1` (centres undefined), the melting point lay in the range of 198 to 200 °C.

In turn, `Cc1cccc2nc3c(cc12)sc1cccc(Cl)c13` showed a melting point of 143 to 146 °C. `CCCCCC(=O)N1c2cscc2C(=O)N(C)c2ccccc21` returned a melting point of 76 to 77 °C. The same measure for `CCCCCCCC(=O)Oc1c(OC)c(OC)c(OC(=O)CCCCCCC)c2cc(Cl)ccc12`: 74 to 75 °C; for `CS(=O)(=O)CCNc1cc(C(c2cc(F)ccc2F)S(=O)(=O)c2ccc(Cl)cc2)c(Cl)cn1` (centres undefined): 134 to 136 °C; for `Cc1cccc(N)c1[N+](=O)[O-]`: 105 to 108 °C.

`CCOC(Nc1ccccc1)(OCC)C1(Cl)C=CN=C(C(=O)c2ccccc2)C1` (centres undefined) had a melting point of 133 to 134 °C.

Consider `CCOC(=O)c1cc(=O)c2cc(O)c(=O)ccc2[nH]1`, for which the melting point is 169 to 172 °C.

The compound `O=C1c2ccccc2C(=O)N1CCCCCCN1CCC(C2(c3ccc(F)cc3)OCCO2)CC1` came in with a melting point of 72 to 76 °C. Compound `COc1cccc(-c2ccc3c(C(=O)Nc4onc(C)c4C)c(OC)ccc3c2)c1` showed a melting point of 124 °C. With `CSc1ncc2c(n1)N(c1ccccc1)C(=O)N(c1ccccc1Cl)C2`, the melting point is 79.5 to 82.4 °C. Then `c1ccc(CSc2nc3cnccn3n2)cc1`, with 93 to 94 °C; and `CN1CCC2(CC1)c1ccccc1Oc1c(O)cccc12`, with 171 to 173 °C. As to `CSC(=C[N+](=O)[O-])NCCSCc1ncccc1Cl`, the melting point was 80 to 82.5 °C.

In turn, `CC(C)(C)OC(=O)Nc1cnc(Cl)cc1C(=O)O` came in with a melting point of 250 °C. On to `CC(=O)Oc1ccc([C@H]2[C@H](c3ccccc3)C2(Cl)Cl)cc1` (relative stereo), for which the melting point was in the range of 124 to 126 °C. `COc1ccc(C(=O)Nc2ccc3ccc(Br)nc3n2)cc1` showed a melting point of 221 °C. On to `FC(F)(F)c1ccnc(Oc2ccc(CCOc3ncnc4nccnc34)cc2)c1`, for which the melting point lay within 172 to 173 °C. `C/C=C1\OC(=O)c2c(Oc3nc(OC)cc(OC)n3)cccc21` gave a melting point of 163 to 165 °C.

`CN(C)C(=O)c1nn(-c2cccc(F)c2)c(=O)c2c1c1ccc(Cl)cc1n2C` yielded a melting point of 208 to 209 °C. Compound `CN1CCN(CCCNc2cc(Oc3ccc4c(C(=O)Nc5cc(C(C)(C)C)nn5-c5ccc(F)cc5)cccc4c3)ncn2)CC1` gave a melting point of 131 to 133 °C. The same measure for `COC(=O)C(Oc1ccc(Cl)c2c1CCC2)c1ccc(Oc2ccc(Cl)cc2)cc1` (centres undefined): 94 to 96 °C.

Consider `CC(C)(C)OC(=O)C(Nc1ccccc1)C(=O)OC(C)(C)C`, for which the melting point turned out to be 94 °C. For the compound `CC(C)CCOc1c(Sc2ccc(C(C)(C)C)cc2)c(Sc2ccccc2N)c(OCCC(C)C)c2c1C(=N)NC2=N`, the melting point fell in the range of 198 to 199 °C. `CCCCN1CC(O)N(c2cc(OC)c(Cl)cc2F)C1=S` (centres undefined) registered a melting point of 137 to 138 °C. Consider `OC/C(=C/c1ccccc1)c1cccs1`, for which the melting point lay within 64 to 65 °C.

As to `OCC1OC(n2ncc3c(SCC=Cc4ccccc4)ncnc32)C(O)C1O` (centres undefined), the melting point is 165 to 166 °C.

The compound `NC1(C2CCN(c3c(F)cc4c(=O)c(C(=O)O)cn(C5CC5)c4c3F)C2)CC1` (centres undefined) came in with a melting point of 227 to 230 °C.

Take `CCc1nc(C)ccc1OC1SCC(OC(C)=O)C(OC(C)=O)C1OC(C)=O` (centres undefined): the melting point fell in the range of 123 to 127 °C. As to `CN(C)C=NC(=O)c1cnn2c(-c3ccccc3)ccnc12`, the melting point was in the range of 198 to 202 °C.

In turn, `CN1CCCN(c2ccc(/C=C/c3cc(/C=C/c4ccc5cc[nH]c5c4)[nH]n3)c(Br)c2)CC1` registered a melting point of 132 to 136 °C. `CON=C(C(=S)OC)c1ccccc1COc1ccccc1Cl` yielded a melting point of 58 to 60 °C. For the compound `COc1ccc(-c2cc(CO)c(=O)n(Cc3ccc(F)cc3)n2)cc1F`, the melting point lay in the range of 127 to 130 °C. Regarding `CCCCCCc1cc(-c2ccccc2)c(OCC(=O)O)c(-c2ccccc2)c1`, the melting point lay in the range of 87 to 89 °C. Take `CSc1ncc2c(n1)Nc1ccccc1-n1nnnc1-2`: the melting point fell in the range of 244 to 246 °C. Turning to `CCc1nc2c(N)nc3cc(CCCNC(C)=O)ccc3c2n1CC1CCOCC1`, the melting point lay within 209 to 211 °C. As for `O=C1NC(=O)c2cc(CCCCCN3CCC(c4nc(-c5ccncc5)c(-c5ccc(Cl)c(Cl)c5)[nH]4)CC3)ccc21`, the melting point is 129 to 134 °C.

`CC(=O)c1ccc(N2CCN(Cc3cn4cc(Cl)ccc4n3)CC2)cc1` displayed a melting point of 186 to 187 °C. As for `Cc1cc(Cn2nnc(C(N)=O)c2N)cc(Cl)c1C(=O)c1ccc(Cl)cc1`, the melting point lay in the range of 205 to 206 °C. Take `CCCCn1c(=O)c2nn(S(=O)(=O)c3ccc4ccccc4c3)cc2n(CCCC)c1=O`: the melting point was 167 to 168 °C. Regarding `COc1cc(Nc2nccc(-c3ccc(CN)cc3)n2)cc(OC)c1OC`, the melting point fell in the range of 143 to 144 °C. The compound `C=CCCN1CCN(c2nc(C)c(C(=O)NCc3cccnc3)s2)C1=O` yielded a melting point of 144 to 145 °C. The compound `CCS(=O)(=O)c1ccc(C=O)cc1` returned a melting point of 107 to 109 °C. Then `Fc1cccc(Cl)c1CNc1ncnc2nsnc12`, with 224 to 226 °C; and `Cc1c(C(=O)Nc2ccc(N3CCCC3)c(C#N)c2)cnn1-c1ccc(F)cc1`, with 185 °C. As to `CNc1nc(-c2cccc(-c3ccc(SC)cc3)c2)c2cc(OC)c(OC)cc2n1`, the melting point fell in the range of 140 to 142 °C. The same measure for `COC(=O)c1cc(-c2ccc(C)cc2)no1`: 106 to 108 °C; for `CC1(C)CCC(C)(C)c2cc(C#Cc3ccc(CN)cc3)ccc21`: 84 to 88 °C; for `COC(=O)c1cccc(OCCCOc2cc3c(cc2O)CCO3)c1`: 93 °C. The same measure for `Nc1nc2nc(-c3ccccc3)[nH]c2c2ncnn12`: over 350 °C.

The term melting point denotes the temperature of the solid-liquid transition.
